Earlier results on 24 molecules are cited in US7585955B2, “Protein separation from a protein mixture” (Florida State University Research Foundation, Inc, priority 2005, dated 2009).

The conditions of this data set: for pKa1 / pKa2: polyprotic buffer component.

As for `Nc1nccs1` [thiazolamine], the pKa result was “about 5.30”.
Take `CC(N)CN` (centres unmarked) [1,2-propanediamine]: the pKa1 result is “about 9.80” and the pKa2 entry is “about 6.60”.
On to `c1ccc2nc3ccccc3cc2c1` [acridine], for which the pKa result was “about 5.60”.
As to `NC[C@H](O)c1ccc(O)c(O)c1` [noradrenaline], the pKa1 entry is given as “about 9.70” and the pKa2 result is given as “about 8.60”.
As for `N=C(N)NCC(=O)O` [glycocyamine], the pKa result was “about 2.80”.
Take `NCCc1c[nH]cn1` [histamine]: the pKa1 result was “about 9.80” and the pKa2 entry is “about 6.00”.
Turning to `CC(O)C(=O)O` (centres unmarked) [lactic acid], the pKa result is on record as “about 3.80”.
Regarding `CN(C)C` [trimethylamine], the pKa result is on record as “about 9.80”.
Consider `O=C(O)c1cncc(C(=O)O)c1` [dinicotinic acid], for which the pKa result is on record as “about 2.80”.
Turning to chloroaniline, the pKa entry is given as “about 2.80”.
As to `Oc1ccc2ccncc2c1` [7-isoquinolinol], the pKa1 entry is “about 8.90” and the pKa2 entry was “about 5.70”.
Regarding `Cc1ccnc2ccccc12` [4-methylquinoline], the pKa entry is reported as “about 5.70”.
As for `CC(=O)CC(=O)O` [acetoacetic acid], the pKa entry is recorded as “about 3.60”.
`O=c1[nH]c(=O)c2[nH]c(=O)[nH]c2[nH]1` [uric acid]: the pKa entry is “about 3.90”.
Regarding `Cc1ccc2ccccc2n1` [2-methylquinoline], the pKa entry is given as “about 5.80”.
With `Cc1cccc2ncccc12` [5-methylquinoline], the pKa entry is “about 5.20”.
Regarding `O=C(O)CCCl` [3-chloropropanoic acid], the pKa result is listed as “about 3.98”.
Regarding `Clc1cnc2ncncc2n1` [6-chloropteridine], the pKa result is listed as “about 3.70”.
`O=C(O)CCCCCC(=O)O` [heptanedioic acid]: the pKa1 entry is given as “about 5.60” and the pKa2 entry is “about 4.70”.
Take `CC(=O)NCC(=O)O` [N-acetylglycine]: the pKa result is recorded as “about 3.70”.
In the case of `CN(C)CC(=O)O` [N,N-dimethylglycine], the pKa result is “about 9.90”.
`c1ccc2cnccc2c1` [isoquinoline]: the pKa entry is reported as “about 5.40”.
Turning to `Nc1ccc(N=Nc2ccccc2)cc1` [4-aminoazobenzene], the pKa entry was “about 2.82”.
Consider `CCNc1ccccc1` [N-ethylaniline], for which the pKa result is “about 5.10”.
